pIC50: −log10 of the molar value.
Target: Recombinant human cathepsin S (CatS) (Homo sapiens, UniProt P25774)
Assay: Recombinant human cathepsin S (CatS) inhibition assay, fluorogenic substrate Z-Valine-Valine-Arginine-AMC;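 note: Baculovirus-expressed CatS in pH 5.0 sodium acetate buffer with DTT and NaCl, fluorescence read each minute over 20 min, inhibition derived from rate slope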
Settings: not given

Recombinant human cathepsin S (CatS), sequence (P25774 115-331): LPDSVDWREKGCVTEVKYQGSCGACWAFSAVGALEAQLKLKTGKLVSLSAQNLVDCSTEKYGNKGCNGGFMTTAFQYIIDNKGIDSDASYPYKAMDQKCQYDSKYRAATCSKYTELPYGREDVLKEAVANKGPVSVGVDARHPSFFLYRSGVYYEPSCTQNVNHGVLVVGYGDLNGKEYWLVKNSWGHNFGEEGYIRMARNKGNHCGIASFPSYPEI

| pIC50 | Compound |
| --- | --- |
| 8.00 | CS(=O)(=O)N1CCc2c(c(-c3ccc(Cl)c(C#Cc4ccc(Cl)cc4)c3)nn2C[C@@H](O)CN2CCC(C3CCNCC3)CC2)C1 [Example 448, (2S)-1-(4,4′-Bipiperidin-1-yl)-3-[3-{4-chloro-3-[(4-chlorophenyl)ethynyl]phenyl}-5-(methylsulfonyl)-4,5,6,7-tetrahydro-1H-pyrazolo[4,3-c]pyridin-1-yl]propan-2-ol] |
| 7.52 | CC(C)(C)OC(=O)N1CCC(C2CCN(C[C@H](O)Cn3nc(-c4ccc(Cl)c(CCc5ccc(Cl)cc5)c4)c4c3CCN(S(C)(=O)=O)C4)CC2)CC1 [Example 245, 1,1-Dimethylethyl 1′-{(2S)-3-[3-{4-chloro-3-[2-(4-chlorophenyl)ethyl]phenyl}-5-(methylsulfonyl)-4,5,6,7-tetrahydro-1H-pyrazolo[4,3-c]pyridin-1-yl]-2-hydroxypropyl}-4,4′-bipiperidine-1-carboxylate] |
| 7.52 | NC(=O)C(=O)N1CCc2c(c(-c3ccc(Cl)c(C#Cc4ccc(Cl)c(C(=O)NCCN5CCOCC5)c4)c3)nn2CCCN2CCSCC2)C1 [Example 581, 5-[(5-{5-[Amino(oxo)acetyl]-1-(3-thiomorpholin-4-ylpropyl)-4,5,6,7-tetrahydro-1H-pyrazolo[4,3-c]pyridin-3-yl}-2-chlorophenyl)ethynyl]-2-chloro-N-(2-morpholin-4-ylethyl)benzamide] |
| 6.24 | CC(NCc1cccc(C#Cc2cc(-c3nn(CCCN4CCOCC4)c4c3CN(S(C)(=O)=O)CC4)ccc2Cl)c1)c1ccccc1 (stereo not shown) [Example 507, N-{[3-({2-Chloro-5-[5-(methylsulfonyl)-1-(3-morpholin-4-ylpropyl)-4,5,6,7-tetrahydro-1H-pyrazolo[4,3-c]pyridin-3-yl]phenyl}ethynyl)phenyl]methyl}-1-phenylethanamine] |
| 7.52 | C[C@H]1COCCN1CCCn1nc(-c2ccc(Cl)c(C#Cc3ccc(Cl)c(CNCCO)c3)c2)c2c1CCN(C(=O)C(N)=O)C2 [Example 295, 2-(3-{4-Chloro-3-[(4-chloro-3-{[(2-hydroxyethyl)amino]methyl}phenyl)ethynyl]phenyl}-1-{3-[(3S)-3-methylmorpholin-4-yl]propyl}-1,4,6,7-tetrahydro-5H-pyrazolo[4,3-c]pyridin-5-yl)-2-oxoacetamide] |
| 7.00 | CS(=O)(=O)N1CCc2c(c(-c3ccc(Cl)c(C#Cc4ccc(CNCc5ccc(Cl)cc5)cc4)c3)nn2CCCN2C[C@@H]3C[C@H]2CO3)C1 [Example 420, 1-[4-({2-Chloro-5-[5-(methylsulfonyl)-1-{3-[(1S,4S)-2-oxa-5-azabicyclo[2.2.1]hept-5-yl]propyl}-4,5,6,7-tetrahydro-1H-pyrazolo[4,3-c]pyridin-3-yl]phenyl}ethynyl)phenyl]-N-[(4-chlorophenyl)methyl]methanamine] |

The next lines start with the compound.

| Compound | pIC50 |
| --- | --- |
| CS(=O)(=O)N1CCc2c(c(-c3ccc(Cl)c(C#Cc4ccc(Cl)cc4)c3)nn2CC(O)CN2CCC(N)CC2)C1 (stereo not shown) [Example 133, 1-(4-Amino-piperidin-1-yl)-3-{3-[4-chloro-3-(4-chloro-phenylethynyl)-phenyl]-5-methanesulfonyl-4,5,6,7-tetrahydro-pyrazolo[4,3-c]pyridin-1-yl}-propan-2-ol] | 6.54 |
| CC(C)(C)OC(=O)N1CCC(C2CCN(C[C@H](O)Cn3nc(-c4ccc(Cl)c(CCc5ccc(Cl)cc5)c4)c4c3CCN(C(N)=O)C4)CC2)CC1 [Example 242, 1,1-Dimethylethyl 1′-{(2S)-3-[5-(aminocarbonyl)-3-{4-chloro-3-[2-(4-chlorophenyl)ethyl]phenyl}-4,5,6,7-tetrahydro-1H-pyrazolo[4,3-c]pyridin-1-yl]-2-hydroxypropyl}-4,4′-bipiperidine-1-carboxylate] | 7.52 |
| CS(=O)(=O)NCCCc1cc(-c2nn(CCCN3CCOCC3)c3c2CN(S(C)(=O)=O)CC3)ccc1Cl [Example 80, N-(3-{2-Chloro-5-[5-methanesulfonyl-1-(3-morpholin-4-yl-propyl)-4,5,6,7-tetrahydro-1H-pyrazolo[4,3-c]pyridin-3-yl]-phenyl}-propyl)-methanesulfonamide] | 5.00 |
| CC(C)(C)OC(=O)N1CCC(C2CCN(C[C@H](O)Cn3nc(-c4ccc(Cl)c(C#CC5CCCCC5)c4)c4c3CCN(S(C)(=O)=O)C4)CC2)CC1 [Example 233, 1,1-Dimethylethyl 1′-[(2S)-3-{3-[4-chloro-3-(cyclohexylethynyl)phenyl]-5-(methylsulfonyl)-4,5,6,7-tetrahydro-1H-pyrazolo[4,3-c]pyridin-1-yl}-2-hydroxypropyl]-4,4′-bipiperidine-1-carboxylate] | 5.10 |
| CS(=O)(=O)N1CCc2c(c(-c3ccc(Cl)c(C#Cc4ccc(CNC(=O)c5ccccc5)cc4)c3)nn2CCCN2CCOCC2)C1 [Example 73, N-(4-{2-Chloro-5-[5-methanesulfonyl-1-(3-morpholin-4-yl-propyl)-4,5,6,7-tetrahydro-1H-pyrazolo[4,3-c]pyridin-3-yl]-phenylethynyl}-benzyl)-benzamide] | 6.46 |

Same assay, conditions: CatS IC50

| Compound | pIC50 |
| --- | --- |
| CS(=O)(=O)N1CCc2c(c(-c3ccc(Cl)c(C#Cc4ccc(NCC#N)cc4)c3)nn2CCCN2CCOCC2)C1 [Example 322, {[4-({2-Chloro-5-[5-(methylsulfonyl)-1-(3-morpholin-4-ylpropyl)-4,5,6,7-tetrahydro-1H-pyrazolo[4,3-c]pyridin-3-yl]phenyl}ethynyl)phenyl]amino}acetonitrile] | 6.14 |
| NC(=O)C(=O)N1CCc2c(c(-c3ccc(Cl)c(C#Cc4ccc(CNCc5ccc(Cl)cc5)cc4)c3)nn2C[C@H](O)CN2CCSCC2)C1 [Example 250, (R)-2-[3-(4-Chloro-3-{4-[(4-chloro-benzylamino)-methyl]-phenylethynyl}-phenyl)-1-(2-hydroxy-3-thiomorpholin-4-yl-propyl)-1,4,6,7-tetrahydro-pyrazolo[4,3-c]pyridin-5-yl]-2-oxo-acetamide] | 7.10 |
| CN(Cc1ccc(Cl)cc1)Cc1ccc(C#Cc2cc(-c3nn(CCCN4CCOCC4)c4c3CN(S(C)(=O)=O)CC4)ccc2Cl)cc1 [Example 495, 1-[4-({2-Chloro-5-[5-(methylsulfonyl)-1-(3-morpholin-4-ylpropyl)-4,5,6,7-tetrahydro-1H-pyrazolo[4,3-c]pyridin-3-yl]phenyl}ethynyl)phenyl]-N-[(4-chlorophenyl)methyl]-N-methylmethanamine] | 6.11 |
| CS(=O)(=O)NC1CCN(CCCn2nc(-c3ccc(Cl)c(C#Cc4ccc(CNCc5ccc(Cl)cc5)cc4)c3)c3c2CCN(S(C)(=O)=O)C3)CC1 [Example 359, N-(1-{3-[3-(4-Chloro-3-{[4-({[(4-chlorophenyl)methyl]amino}methyl)phenyl]ethynyl}phenyl)-5-(methylsulfonyl)-4,5,6,7-tetrahydro-1H-pyrazolo[4,3-c]pyridin-1-yl]propyl}piperidin-4-yl)methanesulfonamide] | 7.10 |
| CS(=O)(=O)N1CCc2c(c(-c3ccc(Cl)c(C#Cc4cccc(CNCCCO)c4)c3)nn2CCCN2CCOCC2)C1 [Example 509, 3-({[3-({2-Chloro-5-[5-(methylsulfonyl)-1-(3-morpholin-4-ylpropyl)-4,5,6,7-tetrahydro-1H-pyrazolo[4,3-c]pyridin-3-yl]phenyl}ethynyl)phenyl]methyl}amino)propan-1-ol] | 6.30 |

— patent US20080200454A1, “CARBON-LINKED TETRAHYDRO-PYRAZOLO-PYRIDINE MODULATORS OF CATHEPSIN S” (priority 2007, published 2008)
